US20240091149A1, “COMPOSITIONS AND METHODS FOR IMPROVING GASTROINTESTINAL ABSORPTION OF ELECTROLYTES” (IGH NATURALS, INC., priority 2020, published 2024)

System: HT-29-MTX intestinal cells
Experiment: IL-10 secretion by intestinal cells
Format: cell-based
Conditions: cells treated with cisplatin alone; FIG. 3
Text: IL-10 secretion peaked between 24-48 hrs and preceded mucin secretion (72-96 hr).

N.N.[Cl][Pt][Cl] [cisplatin]
IL-10 secretion: secreted more IL-10
